Assay results: ChEMBL document CHEMBL1148157, “An analysis of cytotoxic botanical formulations used in the traditional medicine of ancient Persia as abortifacients” (J Nat Prod, 2004)
Values after ≈ are worked out from the molar mass of the structure shown.

How the values were obtained:
Format in all cases: functional, cell-based
P388 = test: Growth inhibition of mouse P388 cells
HT-29 = test: Growth inhibition of human HT29 cells
[1] = Growth inhibition of human CNS cancer cells; conditions: Cancer cell lines
[2] = Growth inhibition of human breast cancer cells; conditions: Cancer cell lines
[3] = Growth inhibition of human colon cancer cells; conditions: Cancer cell lines
[4] = Growth inhibition of human lung cancer cells; conditions: Cancer cell lines
[5] = Growth inhibition of human prostate cancer cells; conditions: cancer cell lines

Q: With COc1cc([C@@H]2c3cc4c(cc3C[C@H]3COC(=O)[C@@H]32)OCO4)cc(OC)c1OC [DESOXYPODOPHYLLOTOXIN] as the compound, how does the IC50 (P388) read?
A: 2.5 ng/mL (≈ 6.27 nM)

Q: What about the IC50 (HT-29) of the same compound?
A: 2.5 ng/mL (≈ 6.27 nM)

Q: Which IC50 (P388) does the source give for COc1cc([C@@H]2c3cc4c(c(O)c3C[C@H]3COC(=O)[C@@H]32)OCO4)cc(OC)c1OC [BETA-PELTATIN A] here?
A: 2.5 ng/mL (≈ 6.03 nM)

Q: What about the IC50 (HT-29) of the same compound?
A: 2.5 ng/mL (≈ 6.03 nM)

Q: What does the source list for CC(C)(O)/C=C/C(=O)[C@](C)(O)[C@H]1[C@H](O)C[C@@]2(C)[C@@H]3CC=C4[C@@H](C=C(O)C(=O)C4(C)C)[C@]3(C)C(=O)C[C@]12C [CUCURBITACIN I]?
A: IC50 [1]: < 400 nM; IC50 [2]: < 400 nM; IC50 [3]: < 400 nM; IC50 [4]: < 400 nM

Q: For CC(=O)OC(C)(C)/C=C/C(=O)[C@](C)(O)[C@H]1[C@H](O)C[C@@]2(C)[C@@H]3CC=C4[C@@H](C=C(O)C(=O)C4(C)C)[C@]3(C)C(=O)C[C@]12C [CUCURBITACIN E], which IC50 [1] is on record?
A: < 400 nM

Q: And the IC50 [2]?
A: < 400 nM

Q: What about the IC50 [3] of the same compound?
A: < 400 nM

Q: And the IC50 [4]?
A: < 400 nM

Q: What about the IC50 [5] of the same compound?
A: 7 nmol

Q: For CC(=O)OC(C)(C)/C=C/C(=O)[C@](C)(O)[C@H]1[C@H](O)C[C@@]2(C)[C@@H]3CC=C4[C@H](C[C@H](O)C(=O)C4(C)C)[C@]3(C)C(=O)C[C@]12C [CUCURBITACIN B], which IC50 [1] is on record?
A: < 400 nM

Q: What about the IC50 [2] of the same compound?
A: < 400 nM

Q: What about the IC50 [3] of the same compound?
A: < 400 nM

Q: And the IC50 [4]?
A: < 400 nM

Q: For CC(C)(O)/C=C/C(=O)[C@](C)(O)[C@H]1[C@H](O)C[C@@]2(C)[C@@H]3CC=C4[C@@H](C[C@H](O)C(=O)C4(C)C)[C@]3(C)C(=O)C[C@]12C [CUCURBITACIN D], which IC50 [1] is on record?
A: < 400 nM

Q: What about the IC50 [2] of the same compound?
A: < 400 nM

Q: What about the IC50 [3] of the same compound?
A: < 400 nM

Q: And the IC50 [4]?
A: < 400 nM
